Here are results for four compounds from publication PMC2726284, “Electron Crystallography Reveals Plasticity within the Drug Binding Site of the Small Multidrug Transporter EmrE” (Journal of Molecular Biology, 2008).

In experiment [1] the target is T1, EmrE (Escherichia coli, UniProt P23895).
T1 construct: 6xHis-tagged EmrE, purified, detergent (DDM)-solubilized
Put plainly: [3H]TPP+ radioligand competition; exchange in 2-D crystals and cryo-EM projection map. Format: binding.

In experiment [2] the target is T1, EmrE. Description: [3H]TPP+ radioligand binding to solubilized EmrE and 2-D crystals. Conditions: cited from earlier work.
Experiment [3] deals with T1, EmrE. Description: [3H]TPP+ radioligand competition; cryo-EM projection structure of 2-D co-crystals at […] Å. Format: binding. Background: Loss of bound radioactivity is the signal in a displacement assay; it reports binding, not function.

Structures are written as SMILES.

T1 sequence (P23895 whole entry): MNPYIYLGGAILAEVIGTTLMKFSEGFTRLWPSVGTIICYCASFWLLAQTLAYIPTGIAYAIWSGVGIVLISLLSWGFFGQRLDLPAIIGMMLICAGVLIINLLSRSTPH

`Cc1cc(N)c2ccccc2[n+]1CCCCCCCCCC[n+]1c(C)cc(N)c2ccccc21` [DQ^2+, dequalinium]: the inhibitory constant (Ki) (usually the equilibrium dissociation constant of an inhibitor or competing ligand from its target) at EmrE [1] was 83 ± 9 nM.

Consider `c1ccc([P+](c2ccccc2)(c2ccccc2)c2ccccc2)cc1` [TPP^+, tetraphenylphosphonium], for which the Kd (commonly a measure of binding affinity in units of concentration) at EmrE [2] was 2.4 nM.

For `CC[N+](C)(CC)CCC[n+]1c(-c2ccccc2)c2cc(N)ccc2c2ccc(N)cc21` [PP^2+, propidium], the affinity at EmrE [1], expressed as Ki, was 19 ± 4 nM.

`CC[n+]1c(-c2ccccc2)c2cc(N)ccc2c2ccc(N)cc21` [Eth^+, ethidium]: at EmrE [3], the Ki was 1000 ± 900 nM.
